How the values were obtained:
[1] = target: T1, Vascular endothelial growth factor receptor 2 (Homo sapiens, UniProt P35968); assay: VEGFR2 Kinase Assay: Biochemical KDR kinase assays were performed in 96 well microtiter plates that were coated overnight with 75 ug/well of poly-Glu-Tyr (4:1) in 10 mM Phosphate Buffered Saline (PBS), pH 7.4. The coated plates were washed with 2 mls per well PBS+0.05% Tween-20 (PBS-T), blocked by incubation with PBS containing 1% BSA, then washed with 2 mls per well PBS-T prior to starting the reaction. Reactions were carried out in 100 uL reaction volumes containing 2.7 uM ATP in kinase buffer (50 mM Hepes buffer pH 7.4, 20 mM MgCl2, 0.1 mM MnCl2 and 0.2 mM Na3VO4). Test compounds were reconstituted in 100% DMSO and added to the reaction to give a final DMSO concentration of 5%. Reactions were initiated by the addition 20 ul per well of kinase buffer containing 200-300 ng purified cytoplasmic domain KDR protein (BPS Bioscience, San Diego, Calif.). Following a 15 minute incubation at 30° C., the reactions were washed 2 mls per well PBS-T. 100 ul of a monoclonal anti-phosphotyrosine antibody-peroxidase conjugate diluted 1:10,000 in PBS-T was added to the wells for 30 minutes. Following a 2 mls per well wash with PBS-Tween-20, 100 ul of 0-Phenylenediamine Dihydrochloride in phosphate-citrate buffer, containing urea hydrogen peroxide, was added to the wells for 7-10 minutes as a colorimetric substrate for the peroxidase. The reaction was terminated by the addition of 100 ul of 2.5N H2SO4 to each well and read using a microplate ELISA reader set at 492 nm.
T1 sequence (P35968 whole entry, the tested form may be a part): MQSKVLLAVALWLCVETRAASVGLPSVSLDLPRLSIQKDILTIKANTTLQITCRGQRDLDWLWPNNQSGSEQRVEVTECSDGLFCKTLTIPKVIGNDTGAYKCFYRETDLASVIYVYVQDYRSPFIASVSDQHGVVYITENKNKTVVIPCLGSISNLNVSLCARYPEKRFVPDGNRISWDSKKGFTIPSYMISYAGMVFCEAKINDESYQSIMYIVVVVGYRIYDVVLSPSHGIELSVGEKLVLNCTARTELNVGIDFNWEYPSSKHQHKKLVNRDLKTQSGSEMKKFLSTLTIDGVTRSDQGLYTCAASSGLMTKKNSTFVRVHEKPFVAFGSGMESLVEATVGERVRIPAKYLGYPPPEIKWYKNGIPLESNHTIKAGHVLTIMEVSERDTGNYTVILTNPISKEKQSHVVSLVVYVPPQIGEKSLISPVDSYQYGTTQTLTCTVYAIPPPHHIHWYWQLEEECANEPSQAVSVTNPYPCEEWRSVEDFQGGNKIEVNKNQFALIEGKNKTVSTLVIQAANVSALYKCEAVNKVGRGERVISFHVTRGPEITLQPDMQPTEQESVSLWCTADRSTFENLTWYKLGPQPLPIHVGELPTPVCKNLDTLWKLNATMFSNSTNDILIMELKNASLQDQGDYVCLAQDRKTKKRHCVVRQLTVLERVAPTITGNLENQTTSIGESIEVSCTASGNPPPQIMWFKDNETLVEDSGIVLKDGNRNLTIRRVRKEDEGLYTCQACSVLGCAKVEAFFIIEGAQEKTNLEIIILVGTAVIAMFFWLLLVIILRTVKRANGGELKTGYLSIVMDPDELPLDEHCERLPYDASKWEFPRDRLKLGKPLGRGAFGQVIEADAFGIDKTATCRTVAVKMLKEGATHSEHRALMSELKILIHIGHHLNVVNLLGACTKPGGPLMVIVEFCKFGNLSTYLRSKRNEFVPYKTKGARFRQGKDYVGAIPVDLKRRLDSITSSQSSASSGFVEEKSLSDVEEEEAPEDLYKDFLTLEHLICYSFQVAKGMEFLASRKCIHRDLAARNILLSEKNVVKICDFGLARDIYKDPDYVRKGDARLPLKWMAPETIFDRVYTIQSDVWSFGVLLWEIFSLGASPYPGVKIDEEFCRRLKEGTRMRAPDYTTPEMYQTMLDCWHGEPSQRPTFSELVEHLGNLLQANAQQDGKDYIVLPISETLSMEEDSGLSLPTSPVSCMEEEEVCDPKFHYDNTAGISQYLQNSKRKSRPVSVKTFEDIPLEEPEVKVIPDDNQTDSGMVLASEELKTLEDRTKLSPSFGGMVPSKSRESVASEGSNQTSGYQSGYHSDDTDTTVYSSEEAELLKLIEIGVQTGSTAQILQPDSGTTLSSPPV

[2] = target: T2, Platelet-derived growth factor receptor beta (Homo sapiens, UniProt P09619); assay: PDGFRbeta Kinase Assay: Biochemical PDGFRbeta kinase assays were performed in 96 well microtiter plates that were coated overnight with 75 ug of poly-Glu-Tyr (4:1) in 10 mM Phosphate Buffered Saline (PBS), pH 7.4. The coated plates were washed with 2 mls per well PBS+0.05% Tween-20 (PBS-T), blocked by incubation with PBS containing 1% BSA, then washed with 2 mls per wellPBS-T prior to starting the reaction. Reactions were carried out in 100 uL reaction volumes containing 36 uM ATP in kinase buffer (50 mM Hepes buffer pH 7.4, 20 mM MgCl2, 0.1 mM MnCl2 and 0.2 mM Na3VO4). Test compounds were reconstituted in 100% DMSO and added to the reaction to give a final DMSO concentration of 5%. Reactions were initiated by the addition 20 ul per well of kinase buffer containing 200-300 ng purified cytoplasmic domain PDGFR-b protein (Millipore). Following a 60 minute incubation at 30° C., the reactions were washed 2 mls per well PBS-T. 100 ul of a monoclonal anti-phosphotyrosine antibody-peroxidase conjugate diluted 1:10,000 in PBS-T was added to the wells for 30 minutes. Following a 2 mls per well wash with PBS-Tween-20, 100 ul of 0-Phenylenediamine Dihydrochloride in phosphate-citrate buffer, containing urea hydrogen peroxide, was added to the wells for 7-10 minutes as a colorimetric substrate for the peroxidase. […]
T2 sequence (P09619 whole entry, the tested form may be a part): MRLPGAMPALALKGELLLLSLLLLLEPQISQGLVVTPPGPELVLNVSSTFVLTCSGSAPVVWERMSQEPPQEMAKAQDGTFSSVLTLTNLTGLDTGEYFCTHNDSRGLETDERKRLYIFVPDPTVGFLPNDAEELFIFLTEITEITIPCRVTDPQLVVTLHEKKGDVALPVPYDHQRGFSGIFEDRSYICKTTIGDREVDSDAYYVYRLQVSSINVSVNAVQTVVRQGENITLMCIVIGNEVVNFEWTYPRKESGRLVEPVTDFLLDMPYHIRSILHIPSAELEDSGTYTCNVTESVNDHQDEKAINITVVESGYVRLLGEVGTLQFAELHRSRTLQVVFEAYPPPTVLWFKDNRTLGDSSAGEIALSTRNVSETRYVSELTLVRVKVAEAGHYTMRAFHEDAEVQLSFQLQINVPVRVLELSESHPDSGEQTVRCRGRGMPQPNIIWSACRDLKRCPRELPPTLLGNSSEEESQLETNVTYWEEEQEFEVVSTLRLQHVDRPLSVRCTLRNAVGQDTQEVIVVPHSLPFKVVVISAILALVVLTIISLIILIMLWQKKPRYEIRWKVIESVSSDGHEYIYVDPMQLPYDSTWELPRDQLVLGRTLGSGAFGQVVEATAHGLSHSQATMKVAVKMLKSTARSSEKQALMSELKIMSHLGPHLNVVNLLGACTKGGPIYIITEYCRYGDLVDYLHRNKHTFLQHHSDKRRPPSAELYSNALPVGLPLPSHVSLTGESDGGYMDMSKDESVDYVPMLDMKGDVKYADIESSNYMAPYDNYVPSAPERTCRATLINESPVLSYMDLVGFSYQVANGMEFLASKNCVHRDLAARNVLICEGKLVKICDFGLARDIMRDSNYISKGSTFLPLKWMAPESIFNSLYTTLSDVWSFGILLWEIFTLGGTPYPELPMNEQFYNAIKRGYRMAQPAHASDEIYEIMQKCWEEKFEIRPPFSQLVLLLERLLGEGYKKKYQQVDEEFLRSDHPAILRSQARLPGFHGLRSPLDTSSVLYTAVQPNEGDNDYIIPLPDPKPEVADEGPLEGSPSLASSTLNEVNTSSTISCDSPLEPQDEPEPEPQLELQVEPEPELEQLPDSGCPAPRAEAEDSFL

[3] = target: T1, Vascular endothelial growth factor receptor 2; assay: (§1) VEGFR2 Cellular Assay: Automated FLIPR (Fluorometric Imaging Plate Reader) technology was used to screen for inhibitors of VEGF induced increases in intracellular calcium levels in fluorescent dye loaded endothelial cells. HUVEC (human umbilical vein endothelial cells) (Clonetics) were seeded in 384-well fibronectin coated black-walled plates overnight @ 37° C./5% CO2. Cells were loaded with calcium indicator Fluo-4 for 45 minutes at 37° C. Cells were washed 2 times (Elx405, Biotek Instruments) to remove extracellular dye. For screening, cells were pre-incubated with test agents for 30 minutes, at a single concentration (10 uM) or at concentrations ranging from 0.0001 to 10.0 uM followed by VEGF165 stimulation (10 ng/mL). Changes in fluorescence at 516 nm were measured simultaneously in all 384 wells using a cooled CCD camera. Data were generated by determining max-min fluorescence levels for unstimulated, stimulated, and drug treated samples.; assay type: cell-based, Endothelial cell
[4] = target: T2, Platelet-derived growth factor receptor beta; assay: as §1, with “PDGFRbeta : Automated” for “VEGFR2 Cellular Assay: Automated”, “of PDGF-induced” for “of VEGF induced”, “cells. NHDF-Ad (Normal Human Dermal Fibroblasts, Adult; Lonza)” for “cells. HUVEC (human umbilical vein endothelial cells) (Clonetics)”, “by PDGF-BB” for “by VEGF165”, “stimulation (30” for “stimulation (10”; assay type: cell-based, Endothelial cell

| Structure (SMILES) | IC50 [1] [nM] | IC50 [2] [nM] | IC50 [3] [nM] | IC50 [4] [nM] |
| --- | --- | --- | --- | --- |
| Cc1ccoc1C(=O)Nc1cccc(C#Cc2cc(C(=O)N=S(C)(=O)CC(=O)N3CC[C@H](O)C3)cnc2N)c1 (stereo partly drawn) | 3 |  |  |  |
| Cc1ccoc1C(=O)Nc1cccc(C#Cc2cncc(C(=O)N=[S@@](C)(=O)CCCO)c2)c1 | 3 | 18 |  |  |
| Cc1ccoc1C(=O)Nc1cccc(C#Cc2cncc(C(=O)N=S(C)(=O)CCCO)c2)c1 (stereo not drawn) | 14 |  | 1 | 31 |
| Cc1ccoc1C(=O)Nc1cccc(C#Cc2cncc(C(=O)N=S(C)(=O)CCCN3CCN(CCOCCO)CC3)c2)c1 (stereo not drawn) | 9 |  | 10 |  |
